Source: patent US8492384B2 (Korea Institute of Science and Technology, priority 2008, dated 2013)

How the values were obtained:
Format in all cases: cell-based
[1] = target: T1, α1G T-type calcium channels (Homo sapiens, UniProt O43497); test: T-type calcium channel activity using the FDSS6000 (HTS, Fluo-3/AM, KCl-induced intracellular calcium change); conditions: percent inhibition at 10 μM, HEK293 cells stably expressing α1G T-type calcium channels and Kir2.1, KCl 75 mM activation; for inhibition at 10 µM: read-out: FDSS (%, 10 μM)
T1 construct: host or cells: HEK293
Method: (§1) The novel compounds of the present invention presented as the formula 1 were tested for their antagonistic activities against T-type calcium channels using the methods described below. More specifically, the synthesized compounds were screened as follows: First, as a primary screening, the compounds having 40% or higher of antagonistic activities against T-type calcium channels were selected using the FDSS6000, a high throughput screening (HTS) device. Then, as a secondary screening, the IC50 (effective inhibitory concentration) values were obtained using the electrophysiological methods.
1) Methods for the Measurements of T-Type Calcium Channel Activity Using the FDSS6000
12 to 24 hours prior to the FDSS-based HTS assay, HEK293 cells stably expressing both α1G T-type calcium channels and Kir2.1 channels (α1G cell line: KCTC 10519BP, KRIBB (Korea Research Institute of Bioscience and Biotechnology) (GENE BANK) were seeded onto the 96-well plate coated with poly-L-lysine (0.05 mg/mL) at a density of 4×10^4 cells/well using a cell distributor (Titertek, USA). On the following day, the cells attached onto the 96-well plate were washed three times with a HEPES-buffered solution (150 mM NaCl, 5 mM KCl, 1 mM MgCl2, 2 mM CaCl2, 10 mM HEPES, 10 mM glucose, and pH 7.4) using an automatic 96-well plate washer (BioTek, USA), and then labeled with a fluorescent calcium indicator dye, Fluo-3/AM (5 μM) and 0.001% Pluronic F-127 in a HEPES-buffered solution at room temperature for 1 hour and then washed again with a HEPES-buffered solution twice. 10 minutes prior to the FDSS6000 measurements, the cells was washed with a HEPES-buffered solution containing 10 mM CaCl2 once and the final volume was adjusted.
In addition to the 96-well plates with cells, the two drug plates were prepared: one containing KCl (final concentration of 75 mM) for the activation of T-type calcium channels, and the other containing testing compounds (blocking agents of T-type calcium channels). Since most cell-based HTS devices are provided with a liquid application system for drug injection but not with a liquid absorption system, the KCl solution and the blocking agents for screening were prepared at concentrations five times higher than the final concentrations in the 10 mM CaCl2 HEPES-buffered solution, and then diluted in the cell plate, and the activities were measured. The specific method of the FDSS6000 measurements is as follows: For the FDSS6000 measurements, after the 20-sec baseline recordings, cells were preincubated with drugs for 75 seconds and the change in intracellular calcium concentration induced by KCl was measured. The percent inhibition by a test compound was calculated as integrated values of 340/380 fluorescent ratio of untreated and drug-treated cells. The control drug was 10 μM of Mibefradil®.
In details, cells were selectively exposed to 340 nm and 380 nm light excited by 4 xenon lamps installed in FDSS6000 using a computer-controlled filter wheel. The emitter fluorescence light through a 515 nm long-pass filter was passed by a freezing digital CCD camera mounted on the device. Data were collected every 1.23 seconds, and an average value of 340/380 fluorescent ratio for each well was obtained using a digital fluorescent analyzer. Data acquisition and analysis were performed using a program provided by Hamamatsu Photonics.

[2] = target: T1, α1G T-type calcium channels; test: T-type calcium channel activity using electrophysiological whole-cell patch-clamp technique; conditions: percent inhibition of inward peak currents, HEK293 cells expressing α1G, head prints 100 μM
[3] = target: T1, α1G T-type calcium channels; test: as above; conditions: HEK293 cells expressing α1G T-type calcium channels
Method: as §1
2) Methods for the Measurements of T-Type Calcium Channel Activity Using an Electrophysiological Whole-Cell Patch-Clamp Technique
HEK293 cells stably expressing T-type calcium channels were cultured in DMEM (Dulbecco's modified Eagle's medium) containing 10% (v/v) fetal bovine serum and 1% penicillin/streptomycin (v/v) in humidified 5% CO2 at 36.5° C. Cells expressing α1GT-type calcium channels were selected using G-418 (0.5 mg/mL) in the culture medium. The culture medium was replaced with a fresh one every 3-4 days, and cells were subcultured every week.
Cells were seeded onto the coverglass coated with poly-L-lysine (0.5 mg/mL) for the measurements of T-type calcium channel activity 2-7 days prior to the recordings. Whole-cell recordings of T-type calcium channel currents were performed using an EPC-9 patch clamp amplifier (HEKA, Germany). Whole-cell currents were recorded using micropipettes with resistance of 3-4 MΩ with the pipette (intracellular) solution containing (in mM): 130 KCl, 11 EGTA, 5 Mg-ATP, and 10 HEPES, pH to 7.4 and with the bath (extracellular) solution containing (in mM): 140 NaCl, 2 CaCl2, and 10 HEPES, pH to 7.4. The inward currents of T-type calcium channels were evoked by the test pulses of −30 mV for 50 ms at a holding potential of −100 mV every 10 seconds.
Each compound was dissolved in dimethylsulfoxide (DMSO) as 10 mM stock solutions and diluted in the bath solution to 10 μM (containing 0.1% DMSO). […] More specifically, each compound was perfused to the bath for about 30-60 seconds, and the inhibition of the inward peak currents by a test compound was calculated as a percent inhibition from which the IC50 values were determined.

T1 sequence (O43497 whole entry): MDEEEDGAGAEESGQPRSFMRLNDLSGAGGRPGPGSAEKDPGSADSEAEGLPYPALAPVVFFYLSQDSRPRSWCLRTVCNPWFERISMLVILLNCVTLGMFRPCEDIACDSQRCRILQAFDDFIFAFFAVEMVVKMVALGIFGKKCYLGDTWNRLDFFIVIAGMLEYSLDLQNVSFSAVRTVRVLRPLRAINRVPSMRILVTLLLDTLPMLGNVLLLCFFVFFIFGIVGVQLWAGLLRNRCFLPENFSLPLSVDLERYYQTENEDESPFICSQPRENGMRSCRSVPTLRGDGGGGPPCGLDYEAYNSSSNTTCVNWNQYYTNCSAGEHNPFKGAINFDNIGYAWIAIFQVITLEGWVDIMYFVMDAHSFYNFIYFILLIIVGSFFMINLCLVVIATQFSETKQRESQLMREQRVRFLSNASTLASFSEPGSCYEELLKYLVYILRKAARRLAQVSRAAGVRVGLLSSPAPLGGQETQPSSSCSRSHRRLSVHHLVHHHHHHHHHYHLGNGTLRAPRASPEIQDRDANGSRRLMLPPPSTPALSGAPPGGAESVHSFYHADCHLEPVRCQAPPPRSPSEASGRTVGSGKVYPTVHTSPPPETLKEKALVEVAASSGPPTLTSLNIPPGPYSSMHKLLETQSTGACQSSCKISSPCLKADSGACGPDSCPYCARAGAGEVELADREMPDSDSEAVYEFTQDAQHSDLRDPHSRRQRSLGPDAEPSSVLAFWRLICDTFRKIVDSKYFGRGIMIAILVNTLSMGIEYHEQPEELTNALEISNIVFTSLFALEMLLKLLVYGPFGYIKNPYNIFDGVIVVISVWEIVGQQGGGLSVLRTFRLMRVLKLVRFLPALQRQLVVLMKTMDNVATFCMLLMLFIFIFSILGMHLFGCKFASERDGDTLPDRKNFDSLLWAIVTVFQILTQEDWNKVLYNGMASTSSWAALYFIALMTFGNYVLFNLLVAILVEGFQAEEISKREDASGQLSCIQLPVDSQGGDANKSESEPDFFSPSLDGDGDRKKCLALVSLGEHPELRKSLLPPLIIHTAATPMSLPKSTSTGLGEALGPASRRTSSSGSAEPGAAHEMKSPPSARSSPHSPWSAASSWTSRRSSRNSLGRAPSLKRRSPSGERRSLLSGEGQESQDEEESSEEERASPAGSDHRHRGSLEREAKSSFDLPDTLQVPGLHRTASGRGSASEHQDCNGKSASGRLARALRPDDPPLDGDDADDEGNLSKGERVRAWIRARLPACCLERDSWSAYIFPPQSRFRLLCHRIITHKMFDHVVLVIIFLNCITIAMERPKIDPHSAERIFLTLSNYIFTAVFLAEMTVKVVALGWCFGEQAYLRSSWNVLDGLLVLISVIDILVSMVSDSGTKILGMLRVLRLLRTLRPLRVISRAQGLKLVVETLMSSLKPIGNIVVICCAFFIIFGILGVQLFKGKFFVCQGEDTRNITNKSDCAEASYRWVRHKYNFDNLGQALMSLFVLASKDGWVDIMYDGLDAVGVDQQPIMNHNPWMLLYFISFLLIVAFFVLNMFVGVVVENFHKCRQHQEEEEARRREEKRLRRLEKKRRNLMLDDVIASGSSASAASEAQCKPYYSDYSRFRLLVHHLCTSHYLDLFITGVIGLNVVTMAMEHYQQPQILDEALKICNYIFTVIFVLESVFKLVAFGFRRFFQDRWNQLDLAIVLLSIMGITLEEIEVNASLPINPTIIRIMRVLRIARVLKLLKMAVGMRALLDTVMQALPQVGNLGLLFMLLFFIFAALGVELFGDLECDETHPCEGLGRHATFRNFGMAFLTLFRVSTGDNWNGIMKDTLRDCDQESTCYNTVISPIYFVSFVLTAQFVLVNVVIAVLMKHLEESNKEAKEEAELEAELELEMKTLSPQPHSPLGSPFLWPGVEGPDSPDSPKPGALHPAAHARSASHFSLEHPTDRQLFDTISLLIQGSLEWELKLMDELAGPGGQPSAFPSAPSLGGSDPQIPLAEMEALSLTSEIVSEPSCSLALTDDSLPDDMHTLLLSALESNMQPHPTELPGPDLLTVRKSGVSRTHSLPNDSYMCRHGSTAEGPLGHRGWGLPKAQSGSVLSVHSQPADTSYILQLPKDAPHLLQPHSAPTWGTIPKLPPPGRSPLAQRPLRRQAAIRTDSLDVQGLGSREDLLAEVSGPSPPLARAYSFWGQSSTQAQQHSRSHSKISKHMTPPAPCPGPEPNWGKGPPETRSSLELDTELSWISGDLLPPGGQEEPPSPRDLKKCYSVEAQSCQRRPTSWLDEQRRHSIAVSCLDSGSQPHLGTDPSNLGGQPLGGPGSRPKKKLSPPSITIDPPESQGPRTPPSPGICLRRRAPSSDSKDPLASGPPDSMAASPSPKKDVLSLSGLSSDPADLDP

Compound	FDSS (%, 10 μM) [1] [%]	HEK293 (%, 100 μM) [2] [%]	IC50 [3] [µM]	inhibition at 10 µM [1] [%]	inhibition at 100 µM [2] [%]
1-N-[4-(4-chlorophenyl)(phenyl)methylpiperazin-1-yl]carbonylethyl-4-methylimidazole [Compound No. 45]	47.90	64.7 ± 2.2	5.46 ± 0.57		
1-N-{2-[4-(4-chlorophenyl) (phenyl)methylpiperazin-1-yl]ethyl}carbamoylethyl-2-phenylimidazole [Compound No. 63]	58.64	89.1 ± 1.3	2.11 ± 0.11		
1-N-{2-[4-(4-chlorophenyl) (phenyl)methylpiperazin-1-yl]ethyl}carbamoylethyl-4-phenylimidazole [Compound No. 64]	60.48	95.8 ± 0.7	1.39 ± 0.07		
Cc1cccc(N2CCN(C(=O)CCn3cnc(-c4ccccc4)c3)CC2)c1C [Compound No. 3, 1-N-[4-(2,3-dimethylphenyl)piperazin-1-yl]carbonylethyl-4-phenylimidazole]			4.89 ± 0.44	55.5	64.7 ± 2.2
O=C(CCn1cnc(-c2ccccc2)c1)N1CCN(Cc2ccc(Cl)cc2)CC1 [Compound No. 5, 1-N-[4-(4-chlorobenzyl)piperazin-1-yl]carbonylethyl-4-phenylimidazole]			3 ± 0.26	64.7	86.5 ± 1.8
O=C(CCn1ccnc1-c1ccccc1)N1CCN(C(c2ccccc2)c2ccccc2)CC1 [Compound No. 13, 1-N-(4-diphenylmethylpiperazin-1-yl)carbonylethyl-2-phenylimidazole]			3.67 ± 0.23	54.7	71.1 ± 3.3

The remaining lines, values ahead:

FDSS (%, 10 μM) [1] [%]	HEK293 (%, 100 μM) [2] [%]	IC50 [3] [µM]	inhibition at 10 µM [1] [%]	inhibition at 100 µM [2] [%]	Compound
		9.36 ± 0.65	39.3	50 ± 0.6	O=C(CCn1ccnc1-c1ccccc1)N1CCN(Cc2ccc(Cl)c(Cl)c2)CC1 [Compound No. 18, 1-N-[4-(3,4-dichlorobenzyl)piperazin-1-yl]carbonylethyl-2-phenylimidazole]
		22.3 ± 1.46	45.2	22.9 ± 1.4	O=C(CCn1cnc(-c2ccccc2)c1)N1CCN(c2ccccc2F)CC1 [Compound No. 20, 1-N-[4-(2-fluorophenyl)piperazin-1-yl]carbonylethyl-4-phenylimidazole]
		4.35 ± 0.14	63.7	74.3 ± 1.3	O=C(CCn1cnc(-c2ccccc2)c1)N1CCN(c2cccc(Cl)c2)CC1 [Compound No. 25, 1-N-[4-(3-chlorophenyl)piperazin-1-yl]carbonylethyl-4-phenylimidazole]
		8.66 ± 0.12	49.6	51.9 ± 0.1	O=C(CCn1cnc(-c2ccccc2)c1)NCCN1CCN(C(c2ccccc2)c2ccccc2)CC1 [Compound No. 55, 1-N-[2-(4-diphenylmethylpiperazin-1-yl)ethyl]carbamoylethyl-4-phenylimidazole]
		14.5 ± 0.68	49.8	37.6 ± 0.5	O=C(CCn1ccnc1-c1ccccc1)NCCN1CCN(c2ccc(F)cc2)CC1 [Compound No. 74, 1-N-{2-[4-(4-fluorophenyl)piperazin-1-yl]ethyl}carbamoylethyl-2-phenylimidazole]
